What all share (assay type): cell-based
The target of one assay is PPARδ (Homo sapiens (Human), UniProt Q03181). The assay can be described thus: Nuclear receptor reporter gene (luciferase) screening model, PPARδ activation in HepG2 cells. The following applies: for Experiment results (relative activation fold) PPARδ: HepG2, solvent control = 1; for EC50: HepG2 reporter gene, 6 concentrations. The text has this: (§1) Using a reporter gene method, a screening model for screening a nuclear receptor agonist in living cells is designed on the basis of the principal that a nuclear receptor can activate transcription of its downstream gene after being activated. A reporter gene plasmid is constructed, in which the DNA binding sequence for the nuclear receptor (NRE) is inserted at the upstream of a luciferase gene, such that the expression of the luciferase gene is regulated by the nuclear receptor. The reporter gene plasmid is transferred into a cell simultaneously with the nuclear receptor. The nuclear receptor will be activated when a nuclear receptor agonist presents in the cell culture medium. The receptor being activated can induce the expression of the luciferase gene, while the amount of generated luciferase can be determined with its luminescent substrate. In this way, the intensity of activation of the nuclear receptor by the compound can be determined by observing the luminescence intensity. For the calibration of the experimental error caused by factors such as transfection efficiency, amount of inoculated cells, toxicity of the compound, etc, a GFP plasmid is co-transfected simultaneously as the internal reference. In the analysis of the experimental results, the luminescent values tested for all wells are calibrated with GFP values. The experimental results are expressed as relative activation fold, with a value of 1 for the solvent control. The greater the fold is, the higher the activation capacity represents.
PPARδ, sequence (Q03181 whole entry, species assumed): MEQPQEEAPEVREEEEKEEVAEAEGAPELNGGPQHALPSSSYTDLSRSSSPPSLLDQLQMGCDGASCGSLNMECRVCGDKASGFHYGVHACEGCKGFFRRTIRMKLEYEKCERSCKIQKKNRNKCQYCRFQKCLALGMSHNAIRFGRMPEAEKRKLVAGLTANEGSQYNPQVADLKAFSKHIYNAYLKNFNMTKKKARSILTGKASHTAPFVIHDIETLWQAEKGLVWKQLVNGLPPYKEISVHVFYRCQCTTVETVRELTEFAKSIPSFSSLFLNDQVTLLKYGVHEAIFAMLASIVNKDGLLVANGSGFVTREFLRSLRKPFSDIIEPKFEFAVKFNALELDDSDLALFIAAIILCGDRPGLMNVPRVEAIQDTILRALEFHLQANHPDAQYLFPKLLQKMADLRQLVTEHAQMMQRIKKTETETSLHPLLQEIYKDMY
PPARδ, sequence (P19793 whole entry partner, species assumed): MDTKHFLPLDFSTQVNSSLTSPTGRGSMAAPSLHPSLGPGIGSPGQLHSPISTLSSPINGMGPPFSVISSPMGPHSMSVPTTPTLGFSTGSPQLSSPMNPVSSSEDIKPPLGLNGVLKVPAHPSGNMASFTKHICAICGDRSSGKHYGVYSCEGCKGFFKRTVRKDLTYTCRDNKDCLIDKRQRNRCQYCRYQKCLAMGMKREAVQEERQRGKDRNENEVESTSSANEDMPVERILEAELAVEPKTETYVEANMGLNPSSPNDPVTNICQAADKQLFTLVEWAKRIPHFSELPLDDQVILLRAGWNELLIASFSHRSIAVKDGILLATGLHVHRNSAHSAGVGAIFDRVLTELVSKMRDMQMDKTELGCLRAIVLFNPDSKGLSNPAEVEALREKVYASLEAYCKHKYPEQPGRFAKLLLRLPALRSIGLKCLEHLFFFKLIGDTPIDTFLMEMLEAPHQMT
(§2) The detailed procedure is described as follows:
(§3) Hepatocarcinoma cell HepG2 (from ATCC, American Type Culture Collection) was cultured in a DMEM medium supplemented with 10% heat-inactivated fetal bovine serum (FBS, Invitogen, Grand Island, N.Y., USA) in a T-75 culture flask (Greiner, Germany) placed in a 5% CO2 incubator at 37° C. and 100% relative humidity.
(§4) On the next day, when the cells in the 96-well culture plate grew up to 50-80% confluency, cell transfection was performed. The cell co-transfection system comprised FuGene6 transfection agent (Roche Molecular Biochemicals, Indianapolis, Ind., U.S.A.) and 60 ng DNA (10 ng hRXR, 10 ng pCMV βGal, 10 ng nuclear receptor expression plasmid RXR/PPARα, δ, γ, 30 ng GFP fluorescence reporter gene plasmid, respectively).
(§5) The cell culture medium was discarded immediately after 24 hours of transfection and replaced by 200 μl fresh DMEM medium containing the test medicament (with 10% FBS treated by activated carbon). The final concentration gradients of the test medicament were 10 μM, 5 μM, 1 μM, 0.1 μM, 0.01 μM, 0.001 μM, and 0 μM. 0.05 μM 2-bromostearic acid (purchased from Sigma, USA) was used as the positive control. The final concentration of DMSO in each well was 0.1%.
(§6) After 24 h treatment with the medicament, the cells were lysed with a lysis solution (Cell Culture Lysis buffer, Promega) and centrifuged, and the supernatant was collected. The supernatant was reacted with a fluorescence assay kit (Promega) and counted by a fluorometer (Ascent Fluoroskan FL reader, Thermo Labsystems, Finland), and the relative intensity of luciferase was determined. For the assay of the β-galactosidase activity used in the experiment as the internal reference (the internal reference for calibrating the transfection efficiency), 50 μl of the supernatant was transferred into a fresh microplate, treated with a Promega kit, and the value was read with a microplate reader at a wavelength of 405 nm (Bio-tech Instruments Inc., Winooski, Vt., USA) (Sauerberg, P.; Olsen, G. S.; Jeppesen, L.; Mogensen, J. P. et al., J. Med. Chem., 2007, 50, 1495-1503).
(§7) In the present screening protocol, it was calculated according to the activation of the receptor by the sample at 6 different concentrations.
(§8) The concentration-activity profile of the effects of a compound was fitted by carrying out iterative computation according to the following formula, and corresponding EC50 was calculated: […]

A further assay concerns the target PPARα (Homo sapiens (Human), UniProt Q07869). The assay can be described thus: Nuclear receptor reporter gene (luciferase) screening model, PPARα activation in HepG2 cells. To be noted: for Experiment results (relative activation fold) PPARα: HepG2, solvent control = 1; for EC50: HepG2 reporter gene, 6 concentrations.
Source text: as §1, §2, §3, §4, §5, §6, §7, §8

The target in another assay is PPARγ (Homo sapiens (Human), UniProt P37231). The experiment in a line: Nuclear receptor reporter gene (luciferase) screening model, PPARγ activation in HepG2 cells. The following applies: for Experiment results (relative activation fold) PPARγ: HepG2, solvent control = 1; for EC50: HepG2 reporter gene, 6 concentrations.
PPARγ, sequence (P37231 whole entry, species assumed): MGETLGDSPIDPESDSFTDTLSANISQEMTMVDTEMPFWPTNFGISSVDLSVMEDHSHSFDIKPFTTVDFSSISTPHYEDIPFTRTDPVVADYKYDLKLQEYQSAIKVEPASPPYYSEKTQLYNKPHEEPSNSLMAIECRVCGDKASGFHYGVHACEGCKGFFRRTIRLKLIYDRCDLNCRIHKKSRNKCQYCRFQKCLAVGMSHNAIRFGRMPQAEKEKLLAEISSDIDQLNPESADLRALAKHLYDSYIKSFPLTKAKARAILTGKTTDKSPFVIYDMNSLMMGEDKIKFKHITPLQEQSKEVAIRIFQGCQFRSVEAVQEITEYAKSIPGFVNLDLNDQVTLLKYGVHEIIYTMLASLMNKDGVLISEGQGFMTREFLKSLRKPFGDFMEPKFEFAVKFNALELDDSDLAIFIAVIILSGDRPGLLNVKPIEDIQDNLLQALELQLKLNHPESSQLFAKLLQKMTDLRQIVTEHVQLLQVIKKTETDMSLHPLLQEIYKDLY
PPARγ, sequence (P19793 whole entry partner, species assumed): as the sequence (P19793 whole entry partner, species assumed) above
Source text: as §1, §2, §3, §4, §5, §6, §7, §8

Where only a bound is given, the exact number is not on record here.

PPARα, sequence (Q07869 whole entry, species assumed): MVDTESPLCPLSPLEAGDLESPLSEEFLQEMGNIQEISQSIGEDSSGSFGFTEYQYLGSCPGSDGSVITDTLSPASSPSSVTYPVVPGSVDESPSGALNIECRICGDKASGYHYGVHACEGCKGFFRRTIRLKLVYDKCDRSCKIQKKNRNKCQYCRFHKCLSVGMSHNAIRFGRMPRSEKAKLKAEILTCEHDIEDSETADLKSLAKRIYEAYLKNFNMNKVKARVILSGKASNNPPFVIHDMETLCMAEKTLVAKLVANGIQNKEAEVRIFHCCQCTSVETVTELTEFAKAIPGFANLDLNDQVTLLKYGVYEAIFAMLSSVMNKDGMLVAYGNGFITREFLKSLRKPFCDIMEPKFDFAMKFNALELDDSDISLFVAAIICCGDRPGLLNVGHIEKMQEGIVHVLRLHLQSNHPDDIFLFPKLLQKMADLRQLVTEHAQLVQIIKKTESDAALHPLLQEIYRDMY
PPARα, sequence (P19793 whole entry partner, species assumed): as the sequence (P19793 whole entry partner, species assumed) above

`CCc1cc(OCCc2nc(-c3ccc(C#N)cc3)oc2C)ccc1CCC(=O)O` [Compound 8]: the “Experiment results (relative activation fold) PPARδ” value on PPARδ (0.001 uM) is reported as 1.65 fold; at PPARδ (0.01 uM) it was 2.69 fold; at PPARδ (0.1 uM), 3.58 fold; on PPARδ (1 uM), 3.94 fold; on PPARδ (5 uM), 4.23 fold; on PPARδ (10 uM) it was 4.40 fold. Besides, the figures for the EC50 at PPARδ, at PPARα and on PPARγ were 6 nM, 5250 nM and 22 nM, respectively. The “Experiment results (relative activation fold) PPARα” value on PPARα (0.001 uM) came to 1.23 fold; at PPARα (0.01 uM), 1.35 fold; at PPARα (0.1 uM) it was 1.48 fold; at PPARα (1 uM), 1.41 fold; at PPARα (5 uM) it was 1.71 fold; on PPARα (10 uM), 1.93 fold. Also, the “Experiment results (relative activation fold) PPARγ” value at PPARγ (0.001 uM) amounted to 1.38 fold; at PPARγ (0.01 uM), 2.29 fold; on PPARγ (0.1 uM), 3.72 fold; at PPARγ (1 uM), 4.75 fold; at PPARγ (5 uM) it was 4.29 fold; at PPARγ (10 uM), 4.24 fold.

Regarding `CCc1cc(OCCc2coc(-c3ccc(C(F)(F)F)cc3)n2)ccc1CCC(=O)O` [Compound 2], the “Experiment results (relative activation fold) PPARδ” value on PPARδ (0.001 uM) is 1.02 fold; at PPARδ (0.01 uM) it was 1.17 fold; on PPARδ (0.1 uM), 1.17 fold; at PPARδ (1 uM), 1.34 fold; on PPARδ (5 uM) it was 1.45 fold; at PPARδ (10 uM), 1.99 fold. The results for the EC50 on PPARδ, at PPARα and on PPARγ were less than 1 nM, 5500 nM and 692 nM, respectively. Moreover, the “Experiment results (relative activation fold) PPARα” value is on record as 1.01 fold at PPARα (0.001 uM); 1.06 fold at PPARα (0.01 uM); 1.16 fold at PPARα (0.1 uM); 1.30 fold at PPARα (1 uM); 1.38 fold at PPARα (5 uM); 1.82 fold at PPARα (10 uM). Besides, the “Experiment results (relative activation fold) PPARγ” value turned out to be 1.09 fold on PPARγ (0.001 uM); 1.26 fold on PPARγ (0.01 uM); 1.26 fold at PPARγ (0.1 uM); 1.49 fold on PPARγ (1 uM); 1.73 fold at PPARγ (5 uM); 2.28 fold on PPARγ (10 uM).

Take `CCc1cc(OCCc2nc(-c3ccc(C(N)=O)cc3)oc2C)ccc1CCC(=O)O` [Compound 9]: the “Experiment results (relative activation fold) PPARδ” value worked out at 1.18 fold at PPARδ (0.001 uM); 1.40 fold at PPARδ (0.01 uM); 2.25 fold at PPARδ (0.1 uM); 3.38 fold on PPARδ (1 uM); 4.08 fold on PPARδ (5 uM); 3.92 fold on PPARδ (10 uM). Moreover, the EC50 came out at 331 nM on PPARδ, 1150 nM on PPARα and 47 nM on PPARγ. Besides, the “Experiment results (relative activation fold) PPARα” value on PPARα (0.001 uM) is 1.25 fold; at PPARα (0.01 uM), 1.17 fold; on PPARα (0.1 uM) it was 1.32 fold; on PPARα (1 uM), 1.56 fold; on PPARα (5 uM), 1.63 fold; on PPARα (10 uM), 1.81 fold. Further, the “Experiment results (relative activation fold) PPARγ” value on PPARγ (0.001 uM) amounted to 1.09 fold; at PPARγ (0.01 uM), 1.51 fold; on PPARγ (0.1 uM) it was 3.20 fold; at PPARγ (1 uM), 4.34 fold; at PPARγ (5 uM) it was 5.04 fold; at PPARγ (10 uM) it was 4.26 fold.

On to `CCc1cc(OCCc2nc(-c3ccc(-c4nnn[nH]4)cc3)oc2C)ccc1CCC(=O)O` [Compound 6], for which the “Experiment results (relative activation fold) PPARδ” value on PPARδ (0.001 uM) amounted to 0.99 fold; on PPARδ (0.01 uM) it was 0.87 fold; at PPARδ (0.1 uM), 1.09 fold; at PPARδ (1 uM), 1.11 fold; at PPARδ (5 uM), 1.27 fold; at PPARδ (10 uM) it was 1.63 fold. Also, the results for the 50% effective concentration (EC50) at PPARδ, on PPARα and on PPARγ were 6760 nM, 2630 nM and 6760 nM, respectively. The “Experiment results (relative activation fold) PPARα” value at PPARα (0.001 uM) is 1.33 fold; at PPARα (0.01 uM), 1.23 fold; on PPARα (0.1 uM), 1.27 fold; on PPARα (1 uM) it was 1.53 fold; at PPARα (5 uM), 1.76 fold; at PPARα (10 uM), 1.96 fold. Also, the “Experiment results (relative activation fold) PPARγ” value is recorded as 0.92 fold at PPARγ (0.001 uM); 1.02 fold on PPARγ (0.01 uM); 1.04 fold on PPARγ (0.1 uM); 1.74 fold on PPARγ (1 uM); 1.63 fold at PPARγ (5 uM); 2.53 fold on PPARγ (10 uM).

With `CCc1cc(OCCc2nc(-c3ccc(F)cc3)oc2C)ccc1CCC(=O)O` [Compound 1, 3-(2-ethyl-4-{2-[2-(4-fluorophenyl)-5-methyloxazol-4-yl]ethoxyl}phenyl)propionic acid], the “Experiment results (relative activation fold) PPARδ” value on PPARδ (0.001 uM) was 1.07 fold; at PPARδ (0.01 uM) it was 1.12 fold; at PPARδ (0.1 uM) it was 1.19 fold; on PPARδ (1 uM), 1.40 fold; at PPARδ (5 uM), 1.33 fold; at PPARδ (10 uM) it was 1.80 fold. In addition, the EC50 came to 29 nM at PPARδ, 29 nM at PPARα and 13 nM on PPARγ. Moreover, the “activation effect on PPARδ receptor (in words)” value at PPARδ (screening results) was “better activation effects”. In addition, the “Experiment results (relative activation fold) PPARα” value at PPARα (0.001 uM) is 1.00 fold; on PPARα (0.01 uM), 1.08 fold; at PPARα (0.1 uM) it was 1.12 fold; at PPARα (1 uM), 1.36 fold; at PPARα (5 uM), 1.35 fold; on PPARα (10 uM), 1.72 fold. Also, at PPARα (screening results), the “activation effect on PPARα receptor (in words)” value is recorded as “better activation effects”. The “Experiment results (relative activation fold) PPARγ” value on PPARγ (0.001 uM) stood at 1.09 fold; on PPARγ (0.01 uM) it was 1.21 fold; at PPARγ (0.1 uM), 1.26 fold; at PPARγ (1 uM) it was 1.45 fold; on PPARγ (5 uM), 1.62 fold; at PPARγ (10 uM) it was 2.01 fold. Also, the “activation effect on PPARγ receptor (in words)” value at PPARγ (screening results) was “better activation effects”.

The values above are taken from US9346770B2, “Compounds having activating effect on subtypes of peroxisome proliferator-activated receptors and its preparation method and uses” (ZHEJIANG HISUN PHARMACEUTICAL CO., LTD., priority 2010, dated 2016).
